One experiment relates to SK-MEL-5 (melanoma) line. As to the kind of experiment: NCI 60 cell line growth inhibition. The following applies: Homo sapiens; 4 alone, SK-MEL-5 line. The class given is cell-based.
For a further experiment, the system named is MOLT-4. As to the kind of experiment: NCI 60 cell line growth inhibition. The experiment is classed as cell-based. Particulars: Homo sapiens; MOLT-4 line.
The target in experiment [1] is APE-1 activity in T98G cell nuclear lysates (Homo sapiens (Human), UniProt P27695). Briefly: Molecular beacon assay in T98G cell nuclear extracts. The class given is biochemical. As for the experimental part:
Isolation and Assay of APE-1 Protein from Nuclear Extracts of Glioma Cells. Human glioblastoma cells (T98G) were maintained in growth medium, i.e., Eagle's Minimum Essential Medium (EMEM) with 10% fetal bovine serum (FBS), […] gentamycin, 1×MEM non-essential amino acids and 1 mM sodium pyruvate. Cells were harvested by Trypsin-EDTA treatment, washed with 1×PBS and nuclear proteins isolated using the CelLytic NuCLEAR Extraction kit (Sigma-Aldrich) as per manufacturer's instructions. Isolated nuclear proteins were estimated colorimetrically (BCA protein assay) and stored at −80° C. (long term) or at −20° C. during regular use. To assay APE-1 activity in T98G cells, nuclear extracts were serially diluted in 10 mM HEPES, 50 mM KCl, 1 mM DTT, 20% (v/v) glycerol and the activities measured via the molecular beacon assay (as described above). […] EC2 nM of nuclear extracts was incubated with 2 to 500 nM hairpin DNA substrate and the V0 measured for each value of [S]. Finally, the apparent KM* was deduced using the software algorithm in Prism (as described previously), and the KM* was used to determine the apparent Ki*. Inhibition of EC2 nM APE-1 activity by the inhibitors was assayed via the molecular beacon assay (described above).
Inhibition of APE-1 Activity in Nuclear Lysates. The ability of 1-5 and 8 to block APE-1 endonuclease activity in a complex mixture of proteins from T98G cell nuclear lysates was tested using the molecular beacon assay. The APE-1 activity in the lysates was standardized to give ˜90% turnover of 25 nM substrate in 10 min.

In a further experiment the test system is T98G cells. As to the kind of experiment: Long term (10-day) CyQUANT cytotoxicity assay. The experiment is classed as cell-based, human. Here is the method:
Cytotoxic Effects of APE-1 Inhibitors on Cultured Human Glioblastoma (T98G) Cells. Human glioblastoma cells (T98G) were maintained in growth medium as described above. […] The cells were allowed to attach and grow for 24 h, and then treated with serial dilutions of the drug for 72 h. After treatment, viable cells were measured by an MTS assay using the CellTiter 96 AQueous kit (Promega) as per manufacturer's instructions. […] The cells were allowed to attach and grow for 24 h and treated with serial dilutions of the drug for 240 h. After treatment, viable cells were measured using the CyQUANT cell proliferation assay kit (Invitrogen) as per manufacturer's instructions.
Toxicity. It was assumed that inhibition of APE-1 activity would be lead to toxicity since genetic deletion of the protein is lethal to cells. […] The toxicities were also determined in combination with the DNA minor groove methylating agent, MeLex. MeLex efficiently and selectively generates N3-methyladenine, which is converted into an abasic site by a BER glycosylase and/or hydrolytic depurination. The T98G cell line is relatively resistant to DNA damaging anticancer agents due to expression of multiple drug resistance proteins and O^6-alkylguanine-DNA alkyltransferase. […] A goal of the development of APE-1 inhibitors is to determine if they can be used to enhance the activity of DNA alkylating agents.

The next experiment addresses APE-1 (Homo sapiens (Human), UniProt P27695). As to the kind of experiment: Molecular beacon assay for APE-1 endonuclease inhibition. The class given is biochemical. The text has this:
Screening Assays for APE1 Inhibition—The initial screen was designed to look at the effect of potential inhibitors on APE1 repair kinetics. The approach can be used as a high throughput screen by choosing a specific timepoint to monitor. The screen utilizes a molecular beacon with a tetrahydrofuran (THF) abasic site within the stem region of a DNA hairpin that has a fluorophore on the 5′-terminus and a quencher on the 3′-terminus (FIG. 2a). […] An example of the molecular beacon screen and the excision assay are shown in FIGS. 2b,c and 2d, respectively.
Molecular Beacon Assay for Screening of APE-1 Inhibitors. A fluorescence-based molecular beacon assay to measure APE-1 protein activity and inhibition was performed as described previously with some modifications. Tang et al. Neuro Oncol. 13, 471-486 (2011) APE-1 (2 nM) in 10 mM HEPES (pH 7.8) 0.5 mM MgCl, 100 mM NaCl, 100 mM KCl, 0.0005% (w/v) BSA, was incubated with 20 nM 5′-(F)-CGACTXTTGAATTGACACGCCATGTCGATCAATTCAATAGTCG-(D)-3′ [X=tetrahydrofuran (THF) abasic site modification; F, 6-carboxyfluorescein (6-FAM); and D, DABCYL] that forms a hairpin with a 15 base pair stem and a 13 base loop. The THF modification is a known substrate for APE-1 excision. APE-1 mediated cleavage of the phosphodiester backbone at the THF-abasic site led to release of the 5′ 6-FAM (fluorophore) containing pentanucleotide, disrupting the Förster Resonance Energy Transfer (FRET) mediated quenching of the 6-FAM by DABCYL in the native hairpin oligomer. Since the signal was generated by continuous liberation of the fluorophore-labeled excision fragment, progress of this reaction could be monitored in real-time using a Cary Eclipse fluorescence spectrometer (Varian, Palo Alto, Calif.) or a Synergy H1 multi-well plate reader (BioTek, Winooski, Vt.). Reactions were optimized to yield ˜90% substrate turnover in 10 min, and fluorescence intensities measured every 12 s at 495 nm excitation and 520 nm emission. Data from the first 1-3 min of the assays (linear phase) were used to determine rate of substrate turnover (V0). The Michaelis constant (KM) was deduced experimentally, by incubating 2 nM APE-1 protein with 2-500 nM hairpin DNA substrate and measuring V0 —the experimentally observed V0 were analyzed as a function of substrate concentration [S] via non-linear regression using Prism (v.4; GraphPad Software, Inc., La Jolla, Calif.) and the KM was calculated as per the algorithm in the software package. To assay inhibition, 2 nM APE-1 protein was pre-incubated with 0.05-10.00 μM of the candidate inhibitors at 25° C. for 60 min, before initiating the excision assay by addition of hairpin DNA substrate. V0 was calculated at various concentrations of inhibitors and represented as inverse function of increasing inhibitor concentration [I]. […] All assays were carried out in three independent sets to obtain mean data and standard error of mean.
Screening for APE-1 Inhibitors. […] In this assay, the DNA hairpin substrate has a 6-FAM fluorophore on the 5′-terminus, a DABACYL fluorescence quencher on the 3′-terminus and a THF abasic site located 6 base pairs from the 5′-terminus in the stem region (FIG. 6). APE-1 activity is monitored as an increase in fluorescence due to the release of the 5′-(6-FAM)-GCACT fragment as a function of time. […] In this assay, substrate turnover was calculated from relative intensities of cleaved vs. intact oligomers and correlated with inhibitor concentration.

We go through one compound from patent US9624235B2, “Compounds and methods for inhibition of AP endonuclease-1/redox factor-1 (HAPE1) activity” (University of Pittsburgh—Of the Commonwealth System of …, priority 2012, dated 2017).

Where two headings read alike, the source gives them in different places.

Sequence of APE-1 (P27695 whole entry): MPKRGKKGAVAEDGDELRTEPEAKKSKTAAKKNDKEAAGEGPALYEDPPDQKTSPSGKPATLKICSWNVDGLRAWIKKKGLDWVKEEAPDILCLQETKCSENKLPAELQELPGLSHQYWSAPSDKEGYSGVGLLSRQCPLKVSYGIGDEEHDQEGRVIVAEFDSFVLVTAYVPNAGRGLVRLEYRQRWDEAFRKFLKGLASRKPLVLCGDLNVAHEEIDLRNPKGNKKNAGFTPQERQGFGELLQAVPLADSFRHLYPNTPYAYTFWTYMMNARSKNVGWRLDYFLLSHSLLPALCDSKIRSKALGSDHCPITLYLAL
Sequence of APE-1 activity in T98G cell nuclear lysates (P27695 whole entry, stated change not applied): as the sequence (P27695 whole entry) above

`CCn1c2ccccc2c2cc(/C=N/Nc3cc(C)nc4cc5c(cc34)OCO5)ccc21` [Compound 4]: the results for the concentration for 50% growth inhibition (GI50) in the experiment with SK-MEL-5 (melanoma) line and with MOLT-4 were 4000 nM and 133 nM, respectively. Also, the Ki – broadly, the equilibrium dissociation constant of an inhibitor or competing ligand from its target – in experiment [1] worked out at 210 nM; on APE-1 (molecular beacon assay, endonuclease activity, read-out: Ki APE-1 endonuclease inhibition), 120 nM; on APE-1 (molecular beacon screen, read-out: Ki, inhibition curve FIG. 2(c)), 345 nM. For the same compound, the LD50 / toxicity in the experiment with T98G cells (long term (clonogenic) assay, T98G) turned out to be 190 nM. Moreover, the LD10 concentration with T98G cells (long term assay) came out at 0.08 µM.
